Source: ChEMBL document CHEMBL1153340, “Inhibitors of HIV-1 attachment. Part 2: An initial survey of indole substitution patterns” (Bioorg Med Chem Lett, 2009)
Converted amounts (≈) assume the structure as drawn.

Columns and labels:
[1] = Cmax in rat at 25 mg/kg, po dosed as solution in PEG400/EtOH; format: ADME, organism-based; design: dose 25 mg/kg, route oral; settings: in vivo
[2] = Cytotoxicity against human HeLa67 cells expressing CD4/CCR5 after 3 days by XTT assay; format: cell-based
[3] = test system: Human immunodeficiency virus 1; test: Antiviral activity against pseudotype HIV1 JRFL infected in human HeLa67 cells expressing CD4/CCR5 after 3 days by luciferase reporter gene assay; format: functional, organism-based; settings: Human immunodeficiency virus 1, JRFL, HeLa67, 72 h
[4] = Clearance in rat at 5 mg/kg, iv dosed as solution in PEG400/EtOH; format: ADME, organism-based; design: dose 5 mg/kg, route intravenous; settings: in vivo
[5] = Volume of distribution at steady state in rat at 5 mg/kg, iv dosed as solution in PEG400/EtOH; format: ADME, organism-based; design: dose 5 mg/kg, route intravenous; settings: in vivo, read-out: Vdss
[6] = Terminal half life in rat at 5 mg/kg, iv dosed as solution in PEG400/EtOH; format: ADME, organism-based; design: dose 5 mg/kg, route intravenous; settings: in vivo, read-out: beta t1/2
[7] = Mean residence time in rat at 5 mg/kg, iv dosed as solution in PEG400/EtOH; format: ADME, organism-based; design: dose 5 mg/kg, route intravenous; settings: in vivo
[8] = Tmax in rat at 25 mg/kg, po dosed as solution in PEG400/EtOH; format: ADME, organism-based; design: dose 25 mg/kg, route oral; settings: in vivo
[9] = Tmax in rat at 5 mg/kg, po dosed as solution in PEG400/EtOH; format: ADME, organism-based; design: dose 5 mg/kg, route oral; settings: in vivo
[10] = Terminal half life in rat at 25 mg/kg, po dosed as solution in PEG400/EtOH; format: ADME, organism-based; design: dose 25 mg/kg, route oral; settings: in vivo, read-out: beta t1/2
[11] = Oral bioavailability in rat at 25 mg/kg dosed as solution in PEG400/EtOH; format: ADME, organism-based; settings: in vivo
[12] = Oral bioavailability in rat at 5 mg/kg dosed as solution in PEG400/EtOH; format: ADME, organism-based; settings: in vivo
[13] = Permeability across human Caco-2 cells; format: ADME, cell-based; settings: read-out: permeability
[14] = Cmax in rat at 5 mg/kg, po dosed as nanosuspension; format: ADME, organism-based; design: dose 5 mg/kg, route oral; settings: in vivo
[15] = Tmax in rat at 5 mg/kg, po dosed as nanosuspension; format: ADME, organism-based; design: dose 5 mg/kg, route oral; settings: in vivo
[16] = Oral bioavailability in rat at 5 mg/kg dosed as nanosuspension; format: ADME, organism-based; settings: in vivo
[17] = Cmax in dog at 1 mg/kg, po dosed as solution in PEG400/EtOH; format: ADME, organism-based, Canis lupus familiaris; design: dose 1 mg/kg, route oral; settings: in vivo
[18] = Tmax in dog at 1 mg/kg, po dosed as solution in PEG400/EtOH; format: ADME, organism-based, Canis lupus familiaris; design: dose 1 mg/kg, route oral; settings: in vivo
[19] = Oral bioavailability in dog at 1 mg/kg dosed as solution in PEG400/EtOH; format: ADME, organism-based, Canis lupus familiaris; settings: in vivo
[20] = Cmax in dog at 1 mg/kg, po dosed as micronized suspension; format: ADME, organism-based, Canis lupus familiaris; design: dose 1 mg/kg, route oral; settings: in vivo
[21] = Tmax in dog at 1 mg/kg, po dosed as micronized suspension; format: ADME, organism-based, Canis lupus familiaris; design: dose 1 mg/kg, route oral; settings: in vivo
[22] = Oral bioavailability in dog at 1 mg/kg dosed as micronized suspension; format: ADME, organism-based, Canis lupus familiaris; settings: in vivo
[23] = Oral bioavailability in dog at 1 mg/kg dosed as nanosuspension; format: ADME, organism-based, Canis lupus familiaris; settings: in vivo
[24] = Solubility in water; format: physicochemical; settings: buffer
[25] = Solubility in poly ethylene glycol 400; format: physicochemical; settings: polyethylene glycol 400
[26] = Cmax in dog at 1 mg/kg, po dosed as nanosuspension; format: ADME, organism-based, Canis lupus familiaris; design: dose 1 mg/kg, route oral; settings: in vivo
[27] = Tmax in dog at 1 mg/kg, po dosed as nanosuspension; format: ADME, organism-based, Canis lupus familiaris; design: dose 1 mg/kg, route oral; settings: in vivo

Cmax [1]: 649 ng/mL
EC50 [3]: 2.59 nM
clearance [4]: 48 mL/min/kg
Vd [5]: 0.99 L/kg
half-life [6]: 0.467 h
MRT [7]: 0.35 h
Tmax [8]: 0.883 h
Tmax [9]: 0.617 h
half-life [10]: 1.2 h
bioavailability [11]: 17%
bioavailability [12]: 9%
Papp [13]: 10 ×10⁻⁶ cm/s
Cmax [14]: 18 ng/mL
Tmax [15]: 2.83 h
bioavailability [16]: 4%
Cmax [17]: 560 ng/mL
Tmax [18]: 1.2 h
bioavailability [19]: 89%
Cmax [20]: 60 ng/mL
Tmax [21]: 4 h
bioavailability [22]: 12%
bioavailability [23]: 36%
solubility [24]: 0.005 µg/mL (≈ 1.32e-05 mM)
solubility [25]: 4600 µg/mL (≈ 12.1 mM)
Cmax [26]: 160 ng/mL
Tmax [27]: 1.8 h
Structure (SMILES): O=C(C(=O)N1CCN(C(=O)c2ccccc2)CC1)c1c[nH]c2cccc(F)c12
CC50 at 72 h [2]: > 300000 nM
